Data: patent publication US20240317800A1, “NOVEL COMPOUNDS AND ANTIBACTERIAL COMPOSITION COMPRISING THE SAME” (KOREA INSTITUTE OF OCEAN SCIENCE & TECHNOLOGY, priority 2022, published 2024)
In brackets after ≈: the same amount, converted by molar mass.

test system: Mycoplasma hyorhinis ATCC 17981; experiment: Mycoplasma inhibitory activity, broth dilution assay (MIC); type: cell-based; conditions: ATCC17981, 168 h, PPLO liquid medium, 7 days, 37° C., 5% CO2, lowest concentration at which bacteria did not grow, read-out: MIC (minimum inhibitory concentration)
Description: For compounds 1 to 3, the inhibitory activity against Mycoplasma hyorhinis was evaluated using a broth dilution assay. Briefly, an experimental strain Mycoplasma hyorhinis ATCC 17981 was cultured in a PPLO liquid medium at 37° C. in a 5% CO2 incubator. […] 100 μL of the culture medium, which made with the strain suspension at approximately 2×10^4 CFU/mL, was added to each well of a 96-well plate. The plates were incubated for 7 days in a 37° C., 5% CO2 incubator. As the bacteria grew, the medium turned yellow. […] BioMycoX® (CellSafe, Korea) was used as a positive control.

Row | MIC [µg/mL] | SMILES
1 | 31 (≈ 43.7 µM) | CC(C)CCCCCCCCC[C@@H]1CC(=O)N[C@@H](CCC(=O)O)C(=O)N[C@@H](CC(C)C)C(=O)N[C@H](CC(C)C)C(=O)N[C@@H](CC(C)C)C(=O)O1 [Compound 3, Bacilotetrin E]
2 | 31 (≈ 44.6 µM) | CCCCCCCCCCC[C@@H]1CC(=O)N[C@@H](CCC(=O)O)C(=O)N[C@@H](CC(C)C)C(=O)N[C@H](CC(C)C)C(=O)N[C@@H](CC(C)C)C(=O)O1 [Compound 1, Bacilotetrin C]
3 | 31 (≈ 43.7 µM) | CCC(C)CCCCCCCC[C@@H]1CC(=O)N[C@@H](CCC(=O)O)C(=O)N[C@@H](CC(C)C)C(=O)N[C@H](CC(C)C)C(=O)N[C@@H](CC(C)C)C(=O)O1 (stereo partly drawn) [Compound 2, Bacilotetrin D]
